Experimental data taken from patent US6420563B1, “Small molecule modulators of G protein-coupled receptor six” (Arena Pharmaceuticals, Inc., priority 1998, dated 2002).
Like-named read-outs stand apart in the source and are kept apart here.

Tests used:
[1] = target: T1, GPR6:Gsα-Fusion Protein (Homo sapiens, UniProt P46095); test: [35S]GTPγS membrane binding assay (Example 4A); assay type: biochemical
T1 construct: expressed in transfected cells
Protocol: The assay plates were then centrifuged at 400 rpm for 15 minutes at room temperature and then subsequently aspirated and counted in a scintillation counter.
Membranes expressing the GPCR6:Gsα-Fusion Protein (see Example 2) and for use in the direct identification of candidate compounds as inverse agonists, agonists or partial agonists were prepared as follows:
All materials were kept on ice throughout the procedure. Firstly, the media was aspirated from a confluent monolayer of cells, followed by rinse with 10 ml cold PBS, followed by aspiration. Thereafter, 5 ml of membrane Scrape Buffer was added to scrape cells; this was followed by transfer of cellular extract into 50 ml centrifuge tubes (centrifuged at 20,000 rpm for 17 minutes at 4° C.). Thereafter, the supernatant was aspirated and the pellet was resuspended in 30 ml Membrane Wash Buffer followed by centrifuge at 20,000 rpm for 17 minutes at 4° C. The supernatant was then aspirated and the pellet resuspended in Binding Buffer. This was then homogenized using a Brinkman polytron™ homogenizer (15-20 second bursts until the all material was in suspension). This is referred to herein as “Membrane Protein”.
Candidate compounds (Tripos, Inc., St. Louis, Mo.) were received in 96-well plates (these can be frozen at −80° C.). Membrane Protein (or membranes with expression vector excluding the GPR6:Gsα-Fusion Protein, as control), were homogenized briefly until in suspension. Protein concentration was then determined using the Bradford Protein Assay set forth above. […] Thereafter, 100 ul GDP Buffer was added to each well of a Wallac Scintistrip™ (Wallac). A 5 ul pin-tool was then used to transfer 5 ul of a candidate compound into such well (i.e., 5 ul in total assay volume of 200 ul is a 1:40 ratio such that the final screening concentration of the candidate compound is 10 uM). Again, to avoid contamination, after each transfer step the pin tool was rinsed in three reservoirs comprising water (1×), ethanol (1×) and water (2×)—excess liquid should be shaken from the tool after each rinse and dried with paper towels and kimwipes™. Thereafter, 50 ul of Membrane Protein was added to each well (a control well comprising membranes without the GPCR Fusion Protein is also utilized), and pre-incubated for 5-10 minutes at room temperature (the plates were covered with foil in that the candidate compounds obtained from Tripos are light sensitive). Thereafter, 50 ul of [^35S]GTPγS (0.6 nM) in Binding Buffer was added to each well, followed by incubation on a shaker for 60 minutes at room temperature (again, in this example, plates were covered with foil). The assay was then stopped by spinning of the plates at 4000 RPM for 15 minutes at 22° C. The plates were then aspirated with an 8 channel manifold and sealed with plastic plate covers. The plates were then read on a Wallac 1450 using setting “Prot. #37” (as per manufacturer instructions).
The initial or “primary” screen designed to directly identify, e.g., human GPR6 receptor inverse agonists, consisted of the membrane-based GTPγS binding assay of Example 4A utilizing membranes prepared from 293 stable cells. Candidate compounds directly identified as inhibiting receptor-mediated increases in GTPγS as set forth below were considered active “leads”.
It is preferred that following such direct identification, IC50 (inverse agonist) or EC50 (agonist) values be determined; those having ordinary skill in the art are credited with utilizing IC50 and EC50 assay protocols of choice. FIG. 4 provides a representative IC50 curve for compound ARE112 using the assay protocol of Example 4A.

[2] = target: T2, GPR6 (Homo sapiens, UniProt P46095); test: membrane-based cyclic AMP confirmation assay (Example 4C); assay type: biochemical; settings: mean +/- standard deviation (number of assays in brackets); read-out: IC50 Values Cyclic AMP Assay Example 4C
T2 construct: expressed in transfected cells; 293 cells are used elsewhere
T2 sequence (P46095 whole entry): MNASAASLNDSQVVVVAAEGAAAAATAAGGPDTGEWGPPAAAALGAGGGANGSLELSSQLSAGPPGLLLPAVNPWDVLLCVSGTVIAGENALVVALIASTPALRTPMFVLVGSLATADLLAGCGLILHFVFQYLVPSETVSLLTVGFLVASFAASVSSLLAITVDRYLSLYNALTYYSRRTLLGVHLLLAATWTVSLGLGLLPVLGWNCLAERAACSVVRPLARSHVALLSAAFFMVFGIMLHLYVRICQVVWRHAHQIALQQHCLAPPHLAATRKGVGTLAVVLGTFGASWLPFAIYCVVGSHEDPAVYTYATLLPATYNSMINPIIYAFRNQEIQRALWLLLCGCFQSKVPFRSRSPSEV
Excerpt: Using an independent assay approach to provide confirmation of a directly identified candidate compound as set forth above, it is preferred that a confirmation assay then be utilized. In this case, the preferred confirmation assay is membrane-based cyclic AMP (cAMP) assay.
A modified Flash Plate™ Adenylyl Cyclase kit (New England Nuclear; Cat. No. SMP004A) was utilized for confirmation of candidate compounds directly identified as inverse agonists and agonists to endogenous, constitutively activated orphan GPCRs in accordance with the following protocol.
Transfected stable cells were harvested approximately three days after transfection. Membranes were prepared by homogenization of suspended cells in buffer containing 20 mM HEPES, pH 7.4 and 10 mM MgCl2. Homogenization was performed on ice using a Brinkman Polytron™ for approximately 10 seconds. The resulting homogenate was centrifuged at 20,000 rpm for 20 minutes at 4° C. The resulting pellet was then resuspended in buffer containing 20 mM HEPES, pH 7.4 and 0.1 mM EDTA, homogenized for 10 seconds, followed by centrifugation at 20,000 rpm for 20 minutes at 4° C. The resulting pellet can be stored at −80° C. until utilized. On the day of direct identification screening, the membrane pellet is slowly thawed at room temperature, resuspended in buffer containing 20 mM HEPES, pH 7.4, 100 mM NaCl and 10 mM MgCL2, to yield a final protein concentration of 0.60 mg/ml (the resuspended membranes are placed on ice until use).
Candidate compounds identified as per above (if frozen, thawed at room temperature) were added to plate wells (3 μl/well; 12 μM final assay concentration), together with 50 μl Membrane Protein (30 μg/well) and 50 μl of Assay Buffer. This admixture was then incubated for 30 minutes at room temperature, with gentle shaking.
Following the incubation, 100 μl of Detection Buffer was added to each well, followed by incubation for 2-20 hours. Plates were subsequently aspirated and then counted in a Wallac MicroBeta™ plate reader using “Prot. #31” (as per manufacturer instructions).

[3] = Food/water intake and body weight in 24-hour food deprived rats, oral gavage (PO); assay type: in vivo, rat
Protocol: Based upon the in vivo data developed, oral bioavailability of compound ARE112 was determined. The compound was administered by oral gavage at doses ranging from 6.75 to 54 mg/kg. The data presented in FIGS. 9A and 9B support the conclusion that oral administration of ARE112 also decreases food intake in both food-deprived and non-food deprived rats. […] In FIG. 9A, rats were deprived 24 hours prior to oral administration of the compound. In this assay, the vehicle-treated rats at 2.5 hours consumed […] of food while injected rats; particularly rats administered with 27 and 54 mg/kg of ARE 112, ate about 6 and 4 grams, respectively. […] (See, FIG. 9A).
Several other GPR6 inverse agonists were also assessed under 24-hour food deprived conditions, with PO administration. The analogs listed below were tested at 200 μmol/kg, which is equivalent to 54 mg/kg. In addition, ARE114 was also assessed at […]. Data are summarized below in Table C:
In a second assay, tested under the same conditions, several other analogs were assessed at 100 μmol/kg.
In FIG. 10, rats were deprived 24 hours prior to oral administration of the compound. In this assay, analogs ARE130, ARE135, ARE136, and ARE140, were administered at a dose of 100 μmol/kg. Three analogs, particularly, ARE130, ARE136 and ARE140 evidenced a slow intake of food (e.g., about 1 to 1.5 grams every two hours) over an eight hour period post-administration; while the vehicle rat consumed about 2 to 2.5 grams food every two hours. Similar to the vehicle rat, analog ARE135, an opened ring structure, evidenced that over an eight hour period post-administration the rats increasingly consumed about 2.5 grams every two hours. (See, FIG. 10A). Furthermore, the body weight of the vehicle rat and administered rats with analog ARE135 gained about 19.5 grams. On the other hand, the closed ring structures evidenced a decrease in body weight gain as follows: ARE112-6 grams, ARE130-9 grams, ARE136-11 grams and ARE140-14 grams. See, FIG. 10C.

[4] = 100 μmol/kg PO, second assay, Table D, vehicle 19.25

T1 sequence (P46095 with tags, fused parts or gaps): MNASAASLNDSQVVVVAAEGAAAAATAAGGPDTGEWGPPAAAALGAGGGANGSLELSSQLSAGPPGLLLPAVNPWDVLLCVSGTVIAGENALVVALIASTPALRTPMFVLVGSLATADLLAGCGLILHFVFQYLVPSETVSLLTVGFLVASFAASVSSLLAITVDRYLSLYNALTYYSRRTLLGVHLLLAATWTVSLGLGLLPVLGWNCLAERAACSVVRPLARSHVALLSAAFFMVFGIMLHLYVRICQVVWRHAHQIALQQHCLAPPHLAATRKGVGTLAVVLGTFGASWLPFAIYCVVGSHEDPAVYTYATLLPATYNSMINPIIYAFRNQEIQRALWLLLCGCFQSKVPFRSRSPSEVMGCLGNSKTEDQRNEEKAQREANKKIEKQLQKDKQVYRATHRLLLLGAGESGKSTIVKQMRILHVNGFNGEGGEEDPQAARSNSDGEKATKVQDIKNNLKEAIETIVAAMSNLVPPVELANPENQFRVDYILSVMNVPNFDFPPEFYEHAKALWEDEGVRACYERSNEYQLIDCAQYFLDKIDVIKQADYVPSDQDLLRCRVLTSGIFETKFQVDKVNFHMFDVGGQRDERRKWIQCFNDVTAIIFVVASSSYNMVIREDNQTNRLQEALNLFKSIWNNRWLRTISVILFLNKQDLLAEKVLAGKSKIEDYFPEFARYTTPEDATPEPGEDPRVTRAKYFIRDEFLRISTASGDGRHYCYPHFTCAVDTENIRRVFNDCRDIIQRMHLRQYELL

O=C(N=C1SSC2=NCCN21)c1cc2ccccc2s1 [ARE140, N-(5,6-dihydro-3H-imidazo[2,1-c]-1,2,4-dithiazol-3-ylidene)-benzothiophen-2-carboxamide]
IC50 ([1]; mean +/- SD (number of assays), read-out: IC50 Values (Table E, GTP Assay of Example 4A)): 0.17 µM
IC50 ([1]; mean +/- standard deviation (number of assays in brackets), read-out: IC50 Values GTP Assay Example 4A): 0.13 µM
IC50 [2]: 0.19 µM
Cumulative Food Intake (g) (8 hr post administration) ([3]; 100 μmol/kg PO, second assay, Table D, vehicle 14.0): 9.6 g
Body Weight Gain (g) (6 hr post administration) [3, 4]: 14.6 g
Cumulative Water Intake (g) (6 hr post administration) [3, 4]: 20.0 g
water drunk (FIG. 10B) ([3]; 100 μmol/kg oral, comparable to vehicle): about 19 grams
body weight gain (FIG. 10C) ([3]; 100 μmol/kg oral, vehicle about 19.5 grams): 14 grams
